Measurements published in US20020177592A1, “Combination of adrenergic agonist and tricyclo-alkylamine for relieving chronic pain without adverse side effects” (priority 1998, published 2002).
Read-outs that look alike come from different tables or passages of the source.

Tests used:
NMDA receptors [1] = settings: concentration giving complete protection of neurons against 200 μM NMA, cell culture; cited from earlier work
NMDA receptors [2] = settings: concentration suppressing MK-801 binding by 50%, cited from earlier work
[3] = test system: rats with sciatic nerve ligation; test: Sciatic nerve ligation model of neuropathic pain, paw lifting latency to thermal stimulus; assay type: in vivo, rat
Excerpt: In all experiments, one hind limb of the rat has undergone a surgical operation in which a loop (“ligature”) of suture material was placed around the sciatic nerve and gently tightened. Over the course of several days, this caused chronic irritation to the nerve, driving it into a “hyper-sensitized” condition of the type which occurs in damaged neuronal circuits that cause neuropathic pain in humans.
After the nerve ligation operation, a waiting period of 8 days elapsed, to allow the ligated limb to reach a peak of hypersensitized chronic irritation of the ligated sciatic nerve. This sciatic nerve model was first described by Bennet and Xie 1988, and is widely regarded as a useful animal model for studying neuropathic pain.
To test the degree of sensitivity in the ligated limb vs. the unoperated limb, a beam of light (thermal stimulus) is applied to the soles (i.e., the undersurface area which is not covered by fur) of the hind paws, by shining a focused beam of light onto the sole, through the glass floor of a testing chamber. This beam was sufficiently hot to generate some discomfort, without posing any risk of burning the paw. The number of seconds that elapsed after commencement of the thermal stimulus, until the rat lifted up the paw, were detected electronically and recorded automatically.
Each limb is tested initially for thermal pain sensitivity, before the ligation operation is performed (pre-surgery), to ensure that both limbs had the same degree of pain sensitivity. After 8 days following surgery, each limb was tested again, before any treatment was given (pre-treatment), to ensure that the nerve ligature successfully provoked a hyper-irritable condition in the ligated limb. After drug treatment (at time=0, on the graphs), each limb was tested for thermal pain sensitivity at hourly intervals, for 4 hours.
The first set of in vivo tests involved sciatic nerve ligation in rats, using procedures described in Bennett and Xie, Pain 33: 87-107 (1988). This test involves surgically placing and tightening a loop of suture material around the sciatic nerve in one hind leg of a rat; the other hind leg serves as a control. Within about a week, the ligated sciatic nerve becomes irritated and reaches a hyper-responsive “kindled” state, where it will respond rapidly to even a mild stimulus that is not painful to an untampered leg. As such, it offers a model of what happens in pain pathways that have become pathologically hypersensitized in a human suffering from neuropathic pain.
In these tests, on the 8th day after surgery, the rat is placed in a testing device which electronically measures how quickly or slowly it acts, in lifting up a paw in response to a standardized mild warming (thermal) stimulus. The warming stimulus is generated by a light beam which shines onto the bottom surface of the paw, through the glass floor of the testing enclosure. The device is electronically controlled and automated, and measurements are made of the number of seconds that elapse after the light beam begins to shine on the bottom of the paw, until the rat lifts its paw.
To establish baseline values for pain sensitivity of each limb in each group of animals, each limb was tested initially for thermal pain sensitivity before the ligation operation was performed (pre-surgery). After 8 days, each limb was again tested before any drug treatment was administered (shown by the “pre-treatment” legend in all graphs). After drug administration, each limb was tested for thermal pain sensitivity at hourly intervals, for 4 hours.
Saline controls and all drugs were administered by intraperitoneal (IP) injection, i.e., hypodermic injection into the abdominal region. This is a convenient and reliable method of drug administration, for tests involving rats.
The test results are shown graphically in the Figures; each circle indicates the mean value, and the vertical bars show the standard error of the mean (SEM). […]

rats [4] = settings: from 0.5 hr after treatment for 1 hr
Protocol: To address these issues, rats with sciatic nerve ligations, and rats with only sham sciatic nerve ligations, were treated with various doses of ethopropazine, clonidine, or the two agents together. They were then evaluated, using the following battery of sensorimotor and activity tests:
(5) One Hour Activity Level.
Locomotor activity was evaluated beginning at 0.5 hr following drug treatment, and lasting for 1 hr. In this test, the rat was placed in a cage equipped with three pairs of photoelectric cells, placed at regular intervals across the width of the cage, so that the animal's activity was monitored by automatically recording the number of “beam breaks” registered as the animal moved about the cage.

rats [5] = test: Sensorimotor battery (plank, walking initiation, platform, inclined screen, activity); assay type: in vivo, rat; settings: treatment regimens that proved effective for relieving neuropathic pain; 1 hour post-treatment
Protocol: Testing was done at 1 hour post-treatment, which corresponded with the time of peak effect of drugs on paw withdrawal latency. Briefly, the sensorimotor battery consisted of five tests (Wozniak et al 1990) that are known to be able to detect significant muscle weakness, incoordination, somnolence, or other behavioral impairments.
For all of the tests in this sensorimotor battery, all treatment groups first received a habituation trial, to allow each rat to acclimate to the test situation. In all tests, protective padding was placed under any elevated apparatuses, to prevent pain or injury from falling. The tests performed were as follows:
A rat was timed for how long it could remain on a wooden plank that is 3 cm wide, elevated 61 cm above the floor.
Each rat was placed in the middle of a square outlined by white cloth tape (50×50 cm) on a smooth black surface of a large table top, and was timed for how long was required for the rat to leave the square (place all four paws outside the square).
Each rat was timed for how long it could remain perched on an elevated (61 cm above the floor) platform of small dimensions (7.6×15.2 cm).
Each rat was placed in the middle of an elevated (61 cm above the floor) wire mesh grid (8 squares per 10 cm) which was inclined at 60 degrees with the floor. […]

NMDA receptors [6] = test: Protection of neurons in cell culture against 200 μM NMA (Olney et al 1987); assay type: cell-based; settings: ratio of protective concentrations
Protocol: In Table 1, the “protective concentration” for each compound was the micromolar concentration of that compound which provided complete protection for neurons, in cell culture tests, against a 200 μM concentration of NMA (i.e., a racemic mixture of the D and L stereoisomers of N-methyl-aspartate; the D isomer, which makes up 50% of the racemic mixture, is highly toxic to neurons, while the L isomer is somewhat less toxic).

[7] = clonidine alone, IP, 0.075 mg/kg

Q: With `OC(CCN1CCCCC1)(c1ccccc1)C1CC2C=CC1C2` (centres unmarked) [Biperiden] as the compound, how does the Protective concentration (NMDA receptors [1]) read?
A: The Protective concentration was 200 µM.

Q: With `CN(C)CCCN1c2ccccc2Sc2ccc(Cl)cc21` [Chlorpromazine] as the compound, how does the IC50 (NMDA receptors [2]) read?
A: Its IC50 is 45.9 ± 11.5 µM.

Q: With `CNCCCN1c2ccccc2CCc2ccccc21` [Desipramine] as the compound, how does the IC50 (NMDA receptors [2]) read?
A: The IC50 was 7.41 ± 1.32 µM.

Q: For `CN(C)CCOC(c1ccccc1)c1ccccc1` [Diphenhydramine], which Protective concentration (NMDA receptors [1]) is on record?
A: Its Protective concentration is 250 µM.

Q: With `CCN(CC)C(C)CN1c2ccccc2Sc2ccccc21` (centres unmarked) [Ethopropazine] as the compound, how does the “paw lifting latency curves of ligated and control limbs” value ([3]; ethopropazine alone, FIGS. 2B and 2C (20 and 30 mg/kg), 2 and 3 hour testing times) read?
A: The value was “both curves rose, substantially”.

Q: What about the “pain sensitivity (paw lifting latency)” value ([3]; ethopropazine alone, IP, 50 mg/kg, FIG. 2D) of the same compound?
A: Its value is “significantly changed the level of pain sensitivity in the ligated limb”.

Q: And the “pain sensitivity (paw lifting latency)” value ([3]; ethopropazine alone, IP, 10 to 30 mg/kg, FIG. 2)?
A: The value was “did not significantly change the pain sensitivity in either limb”.

Q: What about the activity level (rats [4]; ethopropazine alone, 50 mg/kg) of the same compound?
A: Its activity level is “significantly reduced activity level”.

Q: And the Protective concentration (NMDA receptors [1])?
A: Its Protective concentration is 25 µM.

Q: What about the “performance on sensorimotor tests” value (rats [5]) of the same compound?
A: Its value is “None of the ethopropazine or combined ethopropazine-plus-clonidine treatment regimens that proved effective for relieving neuropathic pain was associated with any impaired performance”.

Q: Which “potency relative to ethopropazine (times more potent)” value (NMDA receptors [6]) does the source give for `CNC1(c2ccccc2Cl)CCCCC1=O` (centres unmarked) [Ketamine] here?
A: The value was 5 times.

Q: What about the “potency relative to procyclidine (times more potent)” value (NMDA receptors [6]) of the same compound?
A: Its value is 3 times.

Q: What about the Protective concentration (NMDA receptors [1]) of the same compound?
A: The Protective concentration was 5 µM.

Q: And the IC50 (NMDA receptors [2]; comparator in text)?
A: Its IC50 is 1.02 ± 0.33 µM.

Q: With `CNCCC=C1c2ccccc2CCc2ccccc21` [Nortriptyline] as the compound, how does the IC50 (NMDA receptors [2]) read?
A: The IC50 was 21 ± 0.67 µM.

Q: With `OC(CCN1CCCC1)(c1ccccc1)C1CCCCC1` (centres unmarked) [Procyclidine] as the compound, how does the Protective concentration (NMDA receptors [1]) read?
A: The Protective concentration was 15 µM.

Q: With `CN1[C@@H]2C[C@@H](OC(=O)[C@H](CO)c3ccccc3)C[C@H]1[C@@H]1O[C@@H]12` [Scopolamine] as the compound, how does the Protective concentration (NMDA receptors [1]) read?
A: Its Protective concentration is greater than 3000 µM.

Q: Which Protective concentration (NMDA receptors [1]) does the source give for `OC(CCN1CCCCC1)(c1ccccc1)C1CCCCC1` (centres unmarked) [Trihexyphenidyl] here?
A: Its Protective concentration is 125 µM.

Q: For `Clc1cccc(Cl)c1N=C1NCCN1` [clonidine], which “relief of neuropathic pain” value ([3]; clonidine alone, IP, 0.025 mg/kg and 0.05 mg/kg) is on record?
A: The value was “no significant relief of neuropathic pain”.

Q: And the “relief of neuropathic pain” value [3, 7]?
A: Its value is “significant and relatively sustained neuropathic pain relief”.

Q: And the sedation observed [3, 7]?
A: Its sedation observed is “significant sedation”.

Q: And the activity level (rats [4]; clonidine alone, 0.050 mg/kg)?
A: The activity level was “reduce activity levels, but only slightly and to a barely significant degree”.

Q: And the activity level (rats [4]; clonidine alone, 0.075 mg/kg)?
A: Its activity level is “substantially reduced activity levels”.

Q: Which results are given for `c1ccc(C2(N3CCCCC3)CCCCC2)cc1` [phencyclidine]?
A: potency relative to ethopropazine (times more potent) (NMDA receptors [6]): 50 times; potency relative to procyclidine (times more potent) (NMDA receptors [6]): 30 times; Protective concentration (NMDA receptors [1]): 0.5 µM
